Experimental data: article PMC2360155, “Novel retinoic acid metabolism blocking agents have potent inhibitory activities on human breast cancer cells and tumour growth” (British Journal of Cancer, 2007)

Columns and labels:
AP1 activity = experiment: Anti-AP1 assay (AP-1 CAT reporter, CV-1 cells cotransfected with RAR subtypes); assay type: cell-based; conditions: 10^−6 M; each of the three RAR subtypes cotransfected
Protocol: The ability of each RAMBA to inhibit AP1 activity was determined using anti-AP1 assays as we have described previously ([Soprano et al, 2000]). Briefly, CV-1 cells were cotransfected with 1.5 μg RAR subtype (RARα, RARβ and RARγ) expression vector construct in pSG5, 1.5 μg AP-1 CAT reporter DNA and 0.5 μg pCMV-β-gal DNA. […] Twenty-four hours later, the cells were harvested and CAT and β-gal activities were assayed. The percentage of AP-1 activity was calculated using the ethanol carrier control sample as 100%.

PARP = experiment: Western immunoblotting for cleaved PARP in T47D cells; assay type: cell-based, human; conditions: 6 days
Protocol: At the end of the treatment, cells were scrapped and collected by washing with ice-cold PBS in a centrifuge tube. Cells were centrifuged at 2500 r.p.m. for 10 min, the pellet was again washed with ice-cold PBS and centrifuged. The cell pellet was then suspended in chilled cell lysis buffer (0.1 M Tris–HCl, 0.5% Triton X-100, protease inhibitor cocktail) and sonicated on ice for 10–15 s. The homogenate was kept on ice for 30 min and then centrifuged at 13 000 r.p.m. for 30 min. The supernatant was used as cell lysate. The cell lysates were stored at −80°C. Protein concentration of the cell lysates was determined using Bio-Rad protein assay reagents.
Protein lysates from MCF-7 and T47D cells were subjected to sodium dodecyl sulphate–polyacrylamide gel electrophoresis (SDS–PAGE) and immunoblotted for different proteins. […] Immunoreactive bands were visualised using the enhanced chemiluminescence detection reagents and analysis system (Amersham Bioscences) according to the manufacturer's instructions and quantified by densitometry using ImageQuant software version 5.
Figure 7 (A) Western immunoblotting of whole-cell lysates of treated MCF-7 and T47D cells for the expression of Bad. […] Numbers below the blot show fold increase in expression of the protein as analysed by ImageQuant densitometry analysis. […]

T47D cells = experiment: TUNEL apoptosis assay, T47D; assay type: cell-based, human; conditions: 5 μM; 6 days; control about 1.5%
Source text: (§1) The cells were rinsed with PBS and then the stained-labelled apoptotic cells were mounted using DAPI (diamidino-2-phenylindole 2HCl)-glycerol and visualised with a fluorescent microscope using two filters (1) for TUNEL stained cells, and (2) for DAPI stained cells, which represents all the cells (nuclei). Fluorescent microscope model was Nikon, Eclipse E400 and the software was SPOT advanced version 3.5.5 by Diagnostic Instruments Inc. (Sterling Heights, MI, USA).
(§2) Figure 6 Graphs showing apoptosis induced in (A) MCF-7 and (B) T47D cells as determined by TUNEL. […] TUNEL-stained apoptotic cells were counted against the DAPI stained cells to obtain percentage apoptosis. The experiments were repeated thrice with similar results. Error bars show s.e.m of three different fields of treated cells, statistically significant ^*P<0.01 and ^**P<0.001 vs control.

MCF-7 cells = experiment: TUNEL apoptosis assay, MCF-7; assay type: cell-based, human; conditions: 5 μM; 6 days; control about 1.5%
Source text: as §1, §2

SMILES | Reduction of AP1-dependent transcription activity (AP1 activity) | Increase in level of cleaved PARP compared with control (PARP; 1 μM) | Increase in level of cleaved PARP compared with control (PARP; 5 μM) | Induction of apoptosis (TUNEL), T47D (T47D cells) | Induction of apoptosis (TUNEL), MCF-7 (MCF-7 cells)
CC1=C(/C=C/C(C)=C/C=C/C(C)=C/C(=O)O)C(C)(C)CCC1n1ccnc1 (centres unmarked) [VN/14-1] | 20–40% | 6.3 fold | 7.5 fold | – | –
CC1=C(/C=C/C(C)=C/C=C/C(C)=C\C(=O)Nc2ccc(O)cc2)C(C)(C)CCC1n1ccnc1 (centres unmarked) [VN/69-1] | – | – | – | least effective of the RAMBAs in inducing apoptosis | least effective of the RAMBAs in inducing apoptosis
